Assay results as given in patent US20240287575A1, “Role of Human Pegivirus (HPGV) in Parkinson's Disease: Implications for Diagnosis and Treatment” (Northwestern University, priority 2023, published 2024).

System: normal human astrocytes (NHA)
Assay: Gene expression in NHA exposed to inflammatory cytokines (qPCR)
Format: cell-based
Conditions: for SNCA expression induction: NHA exposed to cytokine for 24 hours, no significant difference between infected and uninfected cells; for LCN2 expression induction: NHA, HPgV-infected and uninfected, exposed to cytokine for 24 hours
Protocol: As previously stated, iPSC-derived PD astrocytes show increased expression of LCN2 and GFAP following exposure to inflammatory conditions. Inflammation can additionally induce A1 phenotypic skewing in astrocytes.^4 Therefore, the analysis of mtDNA, PD astrocyte-associated genes, and A1/A2 skewing was repeated on NHA that were exposed to the inflammatory cytokine IL1β, IFNγ, or TNFα for 24 hours. mtDNA copy number was reduced in infected cells exposed to cytokines as compared to uninfected cells exposed to cytokines (FIG. 5A; IL1β p=0.0004; IFNγ p=0.001; TNFα p=0.03). […] SNCA expression was induced 10-fold following exposure to IL1β.
Normal human astrocytes (NHA): Cryopreserved NHA were obtained from Lonza. NHA were maintained in Astrocyte Basal Medium with Astrocyte Growth Medium SingleQuot supplements (Lonza). NHA were seeded at 5×10^3 cells/cm and allowed to reach confluency before splitting and seeding into new cell culture vessels, which took approximately 10 days. Medium was changed 24 hours after seeding and every subsequent 48 hours. NHA were discarded at passage 10.
Quantification of PD astrocyte associated gene expression was performed on similarly extracted RNA, following DNAse digestion and isopropanol precipitation. DNAse-treated RNA was resuspended in 50 μL of nuclease-free H2O, quantitated using the Qubit BR ssRNA kit, and diluted to 40 ng/μL. Commercially available TaqMan gene expression assays against GFAP (#Hs00909233; Fisher Scientific), LCN2 (#Hs01008571), SNCA (#Hs00240906), and ITPR2 (#Hs00181916), using FAM as a detector, were each multiplexed with GAPDH (housekeeping gene; #Hs02786624) using VIC as a detector. Each assay was run in duplicate 20 μL reactions, with 5 μL of diluted template RNA, 1 μL of each appropriate 20× assay, and 5 μL of TaqMan Fast Virus 1-step master mix. ΔΔCT was calculated as previously described.

Substance	SNCA expression induction	LCN2 expression induction
IFNγ: inflammatory cytokine	observed to a lesser extent	
TNFα	observed to a lesser extent	significantly induced expression of LCN2 in infected cells but not uninfected cells
IL1β: inflammatory cytokine	10 fold	induced LCN2 expression in both infected and uninfected cells
